# Data taken from PMC12185669 (Archives of Toxicology, 2025).
# Where two headings read alike, the source gives them in different places.
# Assays:
# [1] = Quantification in postmortem blood and urine of dipyanone-positive forensic cases; conditions: for concentration in blood, case #2: autoptic heart blood; for concentration in urine, case #2: autoptic urine
# [2] = biological target: human MOR membrane preparation (Homo sapiens, UniProt P35372); assay: biochemical
# [3] = biological target: human KOR membrane preparation (Homo sapiens, UniProt P41145); assay: HTRF-based GTP Gi binding assay, KOR; assay type: biochemical
# Chain of human KOR membrane preparation (P41145 whole entry): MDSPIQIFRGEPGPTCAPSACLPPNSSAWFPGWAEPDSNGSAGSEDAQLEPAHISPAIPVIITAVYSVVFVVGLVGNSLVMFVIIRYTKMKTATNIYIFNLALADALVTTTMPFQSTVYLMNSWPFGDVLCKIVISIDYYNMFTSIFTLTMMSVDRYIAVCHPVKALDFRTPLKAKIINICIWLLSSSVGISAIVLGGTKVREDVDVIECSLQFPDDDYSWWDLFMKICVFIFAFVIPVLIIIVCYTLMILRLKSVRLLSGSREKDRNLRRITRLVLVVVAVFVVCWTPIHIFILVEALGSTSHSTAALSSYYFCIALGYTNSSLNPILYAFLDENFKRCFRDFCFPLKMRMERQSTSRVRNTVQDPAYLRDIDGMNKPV
# [4] = biological target: human DOR membrane preparation (Homo sapiens, UniProt P41143); assay: HTRF-based GTP Gi binding assay, DOR; assay type: biochemical
# Chain of human DOR membrane preparation (P41143 whole entry): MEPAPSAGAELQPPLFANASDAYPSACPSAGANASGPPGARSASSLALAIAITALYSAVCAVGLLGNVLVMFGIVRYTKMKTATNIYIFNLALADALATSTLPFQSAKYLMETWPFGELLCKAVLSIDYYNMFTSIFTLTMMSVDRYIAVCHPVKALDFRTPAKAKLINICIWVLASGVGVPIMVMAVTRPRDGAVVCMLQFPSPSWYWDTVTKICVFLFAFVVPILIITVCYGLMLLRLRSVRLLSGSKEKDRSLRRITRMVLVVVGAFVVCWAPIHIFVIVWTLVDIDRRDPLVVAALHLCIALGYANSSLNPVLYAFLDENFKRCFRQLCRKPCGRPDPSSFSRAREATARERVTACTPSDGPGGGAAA
# [5] = tested on: ten-donor-pooled cryopreserved human hepatocytes; assay: Human hepatocyte incubation, LC-HRMS/MS metabolite identification; assay type: in vitro ADME; conditions: for Hepatocytes peak area: LC-HRMS, positive ionisation mode, three hours of incubation with human hepatocytes, ND not detected; for portion of the total metabolites' signal: hepatocyte incubation, three hours
# Experimental: Dipyanone incubations with human hepatocytes were carried out as previously described (Carlier et al. [2022]; Taoussi et al. [2024]). Briefly, the hepatocytes were thawed in 50 mL of thawing medium at 37 °C. After centrifugation (100 g, 5 min), the supernatant was discarded and the pellet was resuspended in 50 mL of SWM at 37 °C. Following a second centrifugation (100 g, 5 min), the supernatant was removed, and the pellet was resuspended in 2 mL of SWM at 37 °C. Cell viability was determined using the trypan blue exclusion method, and the SWM volume was adjusted to reach a concentration of 2 × 10^6 cells/mL. In sterile 24-well culture plates, 250 µL hepatocyte suspension was gently mixed with 250 µL of dipyanone (20 µmol/L in SWM). The plates were incubated at 37 °C, and reactions were stopped after 0 or 3 h with 500 µL ice-cold acetonitrile, followed by centrifugation (15,000 g, 10 min). Negative (without SWM, hepatocytes, or dipyanone) and positive controls (diclofenac incubation) were incubated for 0 and 3 h under the same conditions to exclude nonspecific reactions and ensure proper metabolic activity. Incubates were stored at – 80° until analysis.
# A 100 µL volume of incubate was mixed with 100 µL of acetonitrile and centrifuged for 10 min, 15,000 g at room temperature for protein precipitation (acetonitrile:SWM, 3:1, v/v). The supernatant was dried under a nitrogen stream at 37 °C. […] Again, the solution was centrifuged (10 min, 15,000 g) at room temperature. The resulting supernatant was transferred into vials with a glass insert, and 10 µL was injected into the chromatographic system for analysis.
# The total chromatographic run time was 24 min.
# [6] = human, in vivo
# Experimental: (§1) Samples were thawed at room temperature. A 100 µL aliquot was mixed with 200 µL of acetonitrile and centrifuged for 10 min at 15,000 g at room temperature. The supernatants were evaporated to dryness under nitrogen at 37 °C. The residues were reconstituted in 100 µL of a mixture containing 95% mobile phase A and 5% mobile phase B (v/v). After centrifugation under the same conditions, the supernatants were transferred to autosampler vials with glass inserts. A 10 µL volume was injected into the chromatographic system for analysis.
# (§2) To investigate glucuronic acid conjugation, 100 µL of urine was mixed with 10 µL of 10 mol/L ammonium acetate (pH 5.0) and 100 µL of β-glucuronidase (5000 units), then incubated at 37 °C for 90 min. Subsequently, 400 µL of ice-cold acetonitrile was added to the mixtures, which were centrifuged for 10 min at 15,000 g at room temperature. The supernatants were evaporated to dryness under nitrogen at 37 °C and reconstituted in 100 µL of a mixture containing 95% mobile phase A and 5% mobile phase B (v/v). After centrifugation under the same conditions, the supernatants were transferred to autosampler vials with glass inserts. A 10 µL volume was injected into the chromatographic system for analysis.
# (§3) The analyses were conducted by liquid chromatography-high-resolution tandem mass spectrometry (LC-HRMS/MS) with a DIONEX UltiMate 3000 liquid chromatographer coupled to a Q Exactive quadrupole-Orbitrap hybrid high-resolution mass spectrometer equipped with a heated electrospray ionisation (HESI) source from Thermo Scientific (Waltham, Massachusetts, USA).
# (§4) The compounds were separated using a Kinetex Biphenyl column (150 × 2.1 mm, 2 μm) from Phenomenex (Torrance, California, USA). The separation was achieved using mobile phases A and B at a flow rate of 0.4 mL/min. The gradient elution program was as follows: 2% B was held for 2 min, then increased to 25% B over 12 min, followed by a rapid increase to 95% B within 2 min, and held for 4 min. Subsequently, the initial conditions were restored within 0.1 min and maintained for 3.9 min. The total chromatographic run time was 24 min. Throughout the analysis, the column oven temperature was maintained at 37 ± 1 °C, while the autosampler temperature was set to 10 ± 1 C.
# (§5) All samples were analysed in both positive- and negative-ion modes, requiring two separate injections while maintaining the same HESI conditions. […] Prior to each analytical session, mass calibration was performed using certified calibration solutions in both positive and negative ion modes. To enhance accuracy, a lock mass list was compiled for positive- (m/z 279.0933, 144.9821, 146.9803) and negative ion modes (m/z 265.1479, 162.9824, 248.9604).
# (§6) The mass spectrometer acquired from 1 to 20 min of the chromatographic run in full-scan HRMS (FullMS)/data-dependent MS/MS (ddMS^2) mode. The FullMS settings were as follows: range, m/z 100 to 650; resolution at full width at half maximum at m/z 200, 70,000; automatic gain control target, 1 × 10^6; and maximum injection time, 200 ms. For ddMS^2, the settings were: automatic gain control target, 2 × 10^5; maximum injection time, 64 ms; isolation window, m/z 1.2; resolution, 17,500; and stepped normalised collision energy, 40, 70, and 90 a.u. A maximum of five ddMS^2 scans were triggered for each FullMS scan, with a minimum intensity of 10^4 and dynamic exclusion of 2.0 s..
# (§7) LC-HRMS/MS data were processed with Thermo Scientific Compound Discoverer in a single analysis.
# µ-opioid receptor = conditions: cited from earlier work
# mouse [7] = tested on: mouse; design: method as in Janssen and Jageneau 2011; conditions: ref Janssen and Jageneau 2011; cited from earlier work
# mouse [8] = tested on: mouse; design: method as in Bockmühl and Ehrhart 1949; conditions: mouse tail pinch test; ref Bockmühl and Ehrhart 1949; cited from earlier work
# [9] = design: method as in Scott et al. 1947; conditions: ref Scott et al. 1947; cited from earlier work
# mice = conditions: ref Scott et al. 1946, 1947; cited from earlier work
# [10] = detected alongside other NSOs; ref Vandeputte et al. 2023; cited from earlier work
# [11] = Metabolite identification in authentic postmortem urine samples by LC-HRMS/MS; conditions: for Urine #1 peak area with β-gluc: postmortem urine case #1, after β-glucuronidase hydrolysis; for Urine #1 peak area with β-gluc / Urine #1 peak area / Urine #2 peak area with β-gluc / Urine #2 peak area: ND not detected; for Urine #1 peak area: postmortem urine case #1, no hydrolysis; for Urine #1 peak area / Urine #2 peak area: positive ionisation mode; for Urine #2 peak area with β-gluc: postmortem urine case #2, after β-glucuronidase hydrolysis; for portion of the total metabolites' signal in urine: both urine samples; for Urine #2 peak area: postmortem urine case #2, no hydrolysis
# Experimental: as §1, §2, §3, §4, §5, §6, §7
# Chain of human MOR membrane preparation (P35372 whole entry): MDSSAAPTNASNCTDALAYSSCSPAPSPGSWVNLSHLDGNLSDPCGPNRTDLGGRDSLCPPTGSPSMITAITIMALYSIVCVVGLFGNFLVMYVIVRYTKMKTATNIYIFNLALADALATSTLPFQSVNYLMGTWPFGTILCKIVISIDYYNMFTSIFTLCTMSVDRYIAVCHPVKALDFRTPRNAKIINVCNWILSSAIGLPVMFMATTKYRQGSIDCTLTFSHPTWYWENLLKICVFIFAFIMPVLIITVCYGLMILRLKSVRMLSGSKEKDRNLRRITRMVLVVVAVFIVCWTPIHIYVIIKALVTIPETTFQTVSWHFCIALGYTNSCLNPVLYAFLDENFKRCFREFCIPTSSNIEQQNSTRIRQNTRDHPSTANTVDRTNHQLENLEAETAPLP
compound,measurement,setting,value
2-fluoromethamphetamine,"concentration in blood, case #2",[1],96 ng/mL
CNC1(c2ccccc2F)CCCCC1=O (centres unmarked) [2-fluoro-deschloroketamine],"concentration in blood, case #2",[1],< 1.0 ng/mL
same,"concentration in urine, case #2",[1],> 50 ng/mL
CC(N)Cc1ccccc1F (centres unmarked) [2-fluoroamphetamine],"concentration in blood, case #2",[1],24 ng/mL
CC[C@@H]1CN2CC[C@@]3(O)C(=Nc4cccc(OC)c43)[C@@H]2C[C@@H]1/C(=C\OC)C(=O)OC [7-hydroxymitragynine],"concentration in blood, case #2",[1],4.7 ng/mL
same,"concentration in urine, case #2",[1],> 200 ng/mL
"CCC(=O)C(CC(C)N1CCCC1)(c1ccccc1)c1ccccc1 (centres unmarked) [Dipyanone, 4,4-diphenyl-6-(1’-pyrrolidinyl)-3-heptanone]",EC50,[2],96.8 nM
same,EC50,[3],380 nM
same,Emax,"[3]; normalised to U-50488, mean (95% CI), n = 3, read-out: KOR Emax relative to U-50488",13%
same,EC50,[4],1070 nM
same,Emax,"[4]; normalised to SNC-80, mean (95% CI), n = 3, read-out: DOR Emax relative to SNC-80",56%
same,Hepatocytes peak area,[5],7.7 × 10^8
same,LC-HRMS/MS peak area after incubation relative to its original value,"[5]; after three hours of incubation, compared to the controls",approximately one-sixth
same,Urine #2 peak area,[6],1.3 × 10^10
same,efficacy (Emax) compared to hydromorphone at the µ-opioid receptor,µ-opioid receptor,155%
same,EC50,"µ-opioid receptor; read-out: EC50 at MOR, β-arrestin2 recruitment assay",39.9 nM
same,"median effective dose, mouse hot plate assay",mouse [7],6.82 mg/kg
same,analgesic properties relative to pethidine,mouse [8],5–10 times
same,analgesic threshold,[9],1 to 2 mg/kg
same,LD50 in mice,mice,~ 17 mg/kg
same,"blood concentration, postmortem case in the USA",[10],370 ng/mL
same,Urine #1 peak area with β-gluc,[11],1.3 × 10^10
same,Urine #1 peak area,[11],1.1 × 10^10
same,Urine #2 peak area with β-gluc,[11],8.0 × 10^9
same,"concentration in urine, four dipyanone-related fatalities","[1]; Germany 2022 and 2023, own unpublished data",80 to 5500 ng/mL
same,"concentration in blood, case #2",[1],80 ng/mL
same,"concentration in blood, case #1",[1]; postmortem femoral blood,720 ng/mL
"CC=C1N(CCCCO)C(C)CC1(c1ccccc1)c1ccccc1 (centres unmarked) [M12, 4’-[2-ethylidene-5-methyl-3,3-diphenylpyrrolidin-1-yl]butan-1’-ol]",Hepatocytes peak area,[5],1.8 × 10^7
same,portion of the total metabolites' signal,[5],50%
same,portion of the total metabolites' signal in urine,[11],23–26%
same,Urine #1 peak area with β-gluc,[11],3.4 × 10^9
same,Urine #1 peak area,[11],2.3 × 10^9
same,Urine #2 peak area with β-gluc,[11],1.7 × 10^9
same,Urine #2 peak area,[11],2.1 × 10^9
"CC=C1N(CCCC(=O)O)C(C)CC1(c1ccccc1)c1ccccc1 (centres unmarked) [M13, 4’-[2-ethylidene-5-methyl-3,3-diphenylpyrrolidin-1-yl]butanoic acid]",Hepatocytes peak area,[5],9.5 × 10^6
same,portion of the total metabolites' signal,[5],27%
same,portion of the total metabolites' signal in urine,[11],61%
same,Urine #1 peak area with β-gluc,[11],5.7 × 10^9
same,Urine #1 peak area,[11],5.4 × 10^9
same,Urine #2 peak area with β-gluc,[11],3.3 × 10^9
same,Urine #2 peak area,[11],5.6 × 10^9
CCNC1(c2ccccc2)CCCCC1=O (centres unmarked) [deschloro-N-ethylketamine],"concentration in blood, case #2",[1],46 ng/mL
same,"concentration in urine, case #2",[1],> 50 ng/mL
CNC1(c2ccccc2)CCCCC1=O (centres unmarked) [deschloroketamine],"concentration in blood, case #2",[1],1.0 ng/mL
same,"concentration in urine, case #2",[1],23 ng/mL
"CCC(=O)C(CC(C)N(C)C)(c1ccccc1)c1ccccc1 (centres unmarked) [methadone, reference compound]","median effective dose, mouse hot plate assay",mouse [7],5.18 mg/kg
same,analgesic threshold,[9],1 to 2 mg/kg
same,LD50 in mice,mice,~ 17 mg/kg
mitragynine,"concentration in blood, case #2",[1],160 ng/mL
same,"concentration in urine, case #2",[1],> 200 ng/mL
